Laboratory results from paper PMC6414696 (mBio, 2019).
Values after ≈ are worked out from the molar mass of the structure shown. Like-named read-outs stand apart in the source and are kept apart here.

Key:
[1] = test system: A. baumannii clinical isolates; assay: microbe, parasite or virus in culture; assay type: cell-based, Acinetobacter baumannii; conditions: for MIC: Acinetobacter baumannii
[2] = test system: A. baumannii (ATCC 17978); assay type: cell-based, Acinetobacter baumannii; conditions: ETX2514 at 4 mg/liter in combination
A. nosocomialis (M2) = assay type: cell-based, Acinetobacter nosocomialis; conditions: ETX2514 at 4 mg/liter in combination
A. baumannii ARC5955 [3] = assay: Neutropenic murine thigh infection model; assay type: in vivo; conditions: thigh tissue, CD-1 mice, 24 h after initiation of therapy, 75 mg/kg SC/q3h; for Change in log10 CFU/g: 75 mg/kg
OXA-66 β-lactamase = OXA-66 β-lactamase (Acinetobacter baumannii, UniProt Q58XD2); assay: β-Lactamase steady-state kinetic analysis, OXA-66; assay type: biochemical, A. baumannii; conditions: OXA-66; data not shown
Sequence of OXA-66 β-lactamase (Q58XD2 entry or part of it): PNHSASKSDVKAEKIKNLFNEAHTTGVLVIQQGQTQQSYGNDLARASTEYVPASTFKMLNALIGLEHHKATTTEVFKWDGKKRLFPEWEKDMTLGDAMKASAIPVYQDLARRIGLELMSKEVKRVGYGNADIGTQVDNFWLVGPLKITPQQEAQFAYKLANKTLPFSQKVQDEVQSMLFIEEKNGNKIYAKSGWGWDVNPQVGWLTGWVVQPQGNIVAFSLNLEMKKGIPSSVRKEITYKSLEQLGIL

A. baumannii isolates = conditions: panel of A. baumannii isolates in a previous study; cited from earlier work
A. baumannii ARC5955 [4] = conditions: A. baumannii ARC5955 carrying blaTEM-1, blaADC-82, blaOXA-23, blaOXA-66; cited from earlier work

SMILES: CC1(C)[C@H](C(=O)O)N2C(=O)C[C@H]2S1(=O)=O [Sulbactam]
- MIC90 ([1]; 72 WRAMC A. baumannii isolates, ETX2514 at 4 mg/liter in combination): 32 µg/mL
- isolates resistant (MIC ≥ 16 mg/liter) ([1]; 72 WRAMC isolates (34/72)): 47%
- MIC ([1]; strain AB001, ETX2514 at 4 mg/liter in combination): 16 µg/mL
- MIC ([1]; strain AB002, ETX2514 at 4 mg/liter in combination): 8 µg/mL
- MIC ([1]; strain AB003, ETX2514 at 4 mg/liter in combination): 8 µg/mL
- MIC ([1]; strain AB004, ETX2514 at 4 mg/liter in combination): 4 µg/mL
- MIC ([1]; strain AB005, ETX2514 at 4 mg/liter in combination): 4 µg/mL
- MIC ([1]; strain AB006, ETX2514 at 4 mg/liter in combination): 4 µg/mL
- MIC ([1]; strain AB007, ETX2514 at 4 mg/liter in combination): 4 µg/mL
- MIC ([1]; strain AB008, ETX2514 at 4 mg/liter in combination): 4 µg/mL
- MIC ([1]; strain AB009, ETX2514 at 4 mg/liter in combination): 4 µg/mL
- MIC ([1]; strain AB010, ETX2514 at 4 mg/liter in combination): 4 µg/mL
- MIC ([1]; strain AB011, ETX2514 at 4 mg/liter in combination): 8 µg/mL
- MIC ([1]; strain AB012, ETX2514 at 4 mg/liter in combination): 4 µg/mL
- MIC ([1]; strain AB013, ETX2514 at 4 mg/liter in combination): 4 µg/mL
- MIC ([1]; strain AB014, ETX2514 at 4 mg/liter in combination): 4 µg/mL
- MIC ([1]; strain AB015, ETX2514 at 4 mg/liter in combination): 4 µg/mL
- MIC ([1]; strain AB016, ETX2514 at 4 mg/liter in combination): 4 µg/mL
- MIC ([1]; strain AB017, ETX2514 at 4 mg/liter in combination): 32 µg/mL
- MIC ([1]; strain AB018, ETX2514 at 4 mg/liter in combination): 64 µg/mL
- MIC ([1]; strain AB019, ETX2514 at 4 mg/liter in combination): 16 µg/mL
- MIC ([1]; strain AB020, ETX2514 at 4 mg/liter in combination): 16 µg/mL
- MIC ([1]; strain AB021, ETX2514 at 4 mg/liter in combination): 16 µg/mL
- MIC ([1]; strain AB022, ETX2514 at 4 mg/liter in combination): 16 µg/mL
- MIC ([1]; strain AB023, ETX2514 at 4 mg/liter in combination): 16 µg/mL
- MIC ([1]; strain AB024, ETX2514 at 4 mg/liter in combination): 16 µg/mL
- MIC ([1]; strain AB025, ETX2514 at 4 mg/liter in combination): 16 µg/mL
- MIC ([1]; strain AB026, ETX2514 at 4 mg/liter in combination): 16 µg/mL
- MIC ([1]; strain AB027, ETX2514 at 4 mg/liter in combination): 16 µg/mL
- MIC ([1]; strain AB028, ETX2514 at 4 mg/liter in combination): 16 µg/mL
- MIC ([1]; strain AB029, ETX2514 at 4 mg/liter in combination): 16 µg/mL
- MIC ([1]; strain AB030, ETX2514 at 4 mg/liter in combination): 16 µg/mL
- MIC ([1]; strain AB031, ETX2514 at 4 mg/liter in combination): 16 µg/mL
- MIC ([1]; strain AB032, ETX2514 at 4 mg/liter in combination): 16 µg/mL
- MIC ([1]; strain AB033, ETX2514 at 4 mg/liter in combination): 64 µg/mL
- MIC ([1]; strain AB034, ETX2514 at 4 mg/liter in combination): 16 µg/mL
- MIC ([1]; strain AB035, ETX2514 at 4 mg/liter in combination): 16 µg/mL
- MIC ([1]; strain AB036, ETX2514 at 4 mg/liter in combination): 16 µg/mL
- MIC ([1]; strain AB037, ETX2514 at 4 mg/liter in combination): 64 µg/mL
- MIC ([1]; strain AB038, ETX2514 at 4 mg/liter in combination): 16 µg/mL
- MIC ([1]; strain AB039, ETX2514 at 4 mg/liter in combination): 4 µg/mL
- MIC ([1]; strain AB040, ETX2514 at 4 mg/liter in combination): 32 µg/mL
- MIC ([1]; strain AB041, ETX2514 at 4 mg/liter in combination): 16 µg/mL
- MIC ([1]; strain AB042, ETX2514 at 4 mg/liter in combination): 4 µg/mL
- MIC ([1]; strain AB043, ETX2514 at 4 mg/liter in combination): 4 µg/mL
- MIC ([1]; strain AB044, ETX2514 at 4 mg/liter in combination): 4 µg/mL
- MIC ([1]; strain AB045, ETX2514 at 4 mg/liter in combination): 2 µg/mL
- MIC ([1]; strain AB046, ETX2514 at 4 mg/liter in combination): 4 µg/mL
- MIC ([1]; strain AB047, ETX2514 at 4 mg/liter in combination): 4 µg/mL
- MIC ([1]; strain AB048, ETX2514 at 4 mg/liter in combination): 4 µg/mL
- MIC ([1]; strain AB049, ETX2514 at 4 mg/liter in combination): 4 µg/mL
- MIC ([1]; strain AB050, ETX2514 at 4 mg/liter in combination): 4 µg/mL
- MIC ([1]; strain AB051, ETX2514 at 4 mg/liter in combination): 2 µg/mL
- MIC ([1]; strain AB052, ETX2514 at 4 mg/liter in combination): 64 µg/mL
- MIC ([1]; strain AB053, ETX2514 at 4 mg/liter in combination): 32 µg/mL
- MIC ([1]; strain AB054, ETX2514 at 4 mg/liter in combination): 64 µg/mL
- MIC ([1]; strain AB055, ETX2514 at 4 mg/liter in combination): 16 µg/mL
- MIC ([1]; strain AB056, ETX2514 at 4 mg/liter in combination): 8 µg/mL
- MIC ([1]; strain AB057, ETX2514 at 4 mg/liter in combination): 16 µg/mL
- MIC ([1]; strain AB058, ETX2514 at 4 mg/liter in combination): 32 µg/mL
- MIC ([1]; strain AB059, ETX2514 at 4 mg/liter in combination): 32 µg/mL
- MIC ([1]; strain AB060, ETX2514 at 4 mg/liter in combination): 8 µg/mL
- MIC ([1]; strain AB061, ETX2514 at 4 mg/liter in combination): 8 µg/mL
- MIC ([1]; strain AB062, ETX2514 at 4 mg/liter in combination): 8 µg/mL
- MIC ([1]; strain AB063, ETX2514 at 4 mg/liter in combination): 32 µg/mL
- MIC ([1]; strain AB064, ETX2514 at 4 mg/liter in combination): 8 µg/mL
- MIC ([1]; strain AB065, ETX2514 at 4 mg/liter in combination): 8 µg/mL
- MIC ([1]; strain AB066, ETX2514 at 4 mg/liter in combination): 4 µg/mL
- MIC ([1]; strain AB067, ETX2514 at 4 mg/liter in combination): 4 µg/mL
- MIC ([1]; strain AB068, ETX2514 at 4 mg/liter in combination): 4 µg/mL
- MIC ([1]; strain AB069, ETX2514 at 4 mg/liter in combination): 4 µg/mL
- MIC ([1]; strain AB070, ETX2514 at 4 mg/liter in combination): 32 µg/mL
- MIC ([1]; strain AB071, ETX2514 at 4 mg/liter in combination): 8 µg/mL
- MIC ([1]; strain AB072, ETX2514 at 4 mg/liter in combination): 4 µg/mL
- MIC ([1]; strain CCF 1MR, carbapenem resistant, ETX2514 at 4 mg/liter in combination): 32 µg/mL
- MIC ([1]; strain CCF 2MR, carbapenem resistant, ETX2514 at 4 mg/liter in combination): 16 µg/mL
- MIC ([1]; strain CCF 3MR, carbapenem resistant, ETX2514 at 4 mg/liter in combination): 4 µg/mL
- MIC ([1]; strain CCF 4MR, carbapenem resistant, ETX2514 at 4 mg/liter in combination): 16 µg/mL
- MIC ([1]; strain CCF 5MR, carbapenem resistant, ETX2514 at 4 mg/liter in combination): 16 µg/mL
- MIC ([1]; strain CCF 6MR, carbapenem resistant, ETX2514 at 4 mg/liter in combination): 16 µg/mL
- MIC ([1]; strain CCF 7MR, carbapenem resistant, ETX2514 at 4 mg/liter in combination): 32 µg/mL
- MIC ([1]; strain CCF 8MR, carbapenem resistant, ETX2514 at 4 mg/liter in combination): 8 µg/mL
- MIC ([1]; strain UH AB202, carbapenem resistant, ETX2514 at 4 mg/liter in combination): 16 µg/mL
- MIC ([1]; strain UH AB461, carbapenem resistant, ETX2514 at 4 mg/liter in combination): 8 µg/mL
- MIC ([1]; strain UH AB477, carbapenem resistant, ETX2514 at 4 mg/liter in combination): 16 µg/mL
- MIC ([1]; strain UH AB487, carbapenem resistant, ETX2514 at 4 mg/liter in combination): 16 µg/mL
- MIC ([1]; strain UH AB489, carbapenem resistant, ETX2514 at 4 mg/liter in combination): 16 µg/mL
- MIC ([1]; strain UH AB490, carbapenem resistant, ETX2514 at 4 mg/liter in combination): 16 µg/mL
- MIC ([1]; strain UH AB491, carbapenem resistant, ETX2514 at 4 mg/liter in combination): 16 µg/mL
- MIC ([1]; strain UH AB636, carbapenem resistant, ETX2514 at 4 mg/liter in combination): 16 µg/mL
- MIC ([1]; strain UH AB660, carbapenem resistant, ETX2514 at 4 mg/liter in combination): 16 µg/mL
- MIC ([1]; strain UH AB667, carbapenem resistant, ETX2514 at 4 mg/liter in combination): 32 µg/mL
- MIC ([1]; strain VA-432, carbapenem resistant, ETX2514 at 4 mg/liter in combination): 16 µg/mL
- MIC ([1]; strain VA-433, carbapenem resistant, ETX2514 at 4 mg/liter in combination): 16 µg/mL
- MIC ([1]; strain VA-434, carbapenem resistant, ETX2514 at 4 mg/liter in combination): 16 µg/mL
- MIC ([1]; strain VA-435, carbapenem resistant, ETX2514 at 4 mg/liter in combination): 16 µg/mL
- MIC ([1]; strain VA-436, carbapenem resistant, ETX2514 at 4 mg/liter in combination): 16 µg/mL
- MIC ([1]; strain VA-437, carbapenem resistant, ETX2514 at 4 mg/liter in combination): 8 µg/mL
- MIC ([1]; strain VA-438, carbapenem resistant, ETX2514 at 4 mg/liter in combination): 8 µg/mL
- MIC ([1]; strain VA-505, carbapenem resistant, ETX2514 at 4 mg/liter in combination): 8 µg/mL
- MIC ([2]; ATCC 17978 ΔadeB/ΔadeJ): 1 µg/mL
- MIC ([2]; ATCC 17978 ΔadeB): 1 µg/mL
- MIC ([2]; ATCC 17978 ΔadeJ): 1 µg/mL
- MIC (A. nosocomialis (M2); M2 WT): 2 µg/mL
- MIC (A. nosocomialis (M2); M2 ΔadeB/ΔadeJ): 2 µg/mL
- MIC (A. nosocomialis (M2); M2 ΔadeJ): 2 µg/mL
- Log10 CFU/g (A. baumannii ARC5955 [3]): 9.0 log10 CFU/g
- Change in log10 CFU/g (A. baumannii ARC5955 [3]): 2.5 log10 CFU/g
- Change in log10 CFU/g (A. baumannii ARC5955 [3]; listed as sulbactam): > 2 log10 CFU/g
- substrate quality for the enzyme (OXA-66 β-lactamase): very poor substrate
- MIC90 (A. baumannii isolates): 64 µg/mL (≈ 274 µM)
- MIC (A. baumannii ARC5955 [4]): 64 µg/mL (≈ 274 µM)
